Assay results taken from ChEMBL document CHEMBL1641451, “Investigation of α-phenylnorstatine and α-benzylnorstatine as transition state isostere motifs in the search for new BACE-1 inhibitors” (Bioorg Med Chem, 2011).

Each molecule was assayed against Beta-secretase 1 (Homo sapiens, UniProt P56817) (assay: Inhibition of BACE1).
Beta-secretase 1, sequence (P56817 whole entry): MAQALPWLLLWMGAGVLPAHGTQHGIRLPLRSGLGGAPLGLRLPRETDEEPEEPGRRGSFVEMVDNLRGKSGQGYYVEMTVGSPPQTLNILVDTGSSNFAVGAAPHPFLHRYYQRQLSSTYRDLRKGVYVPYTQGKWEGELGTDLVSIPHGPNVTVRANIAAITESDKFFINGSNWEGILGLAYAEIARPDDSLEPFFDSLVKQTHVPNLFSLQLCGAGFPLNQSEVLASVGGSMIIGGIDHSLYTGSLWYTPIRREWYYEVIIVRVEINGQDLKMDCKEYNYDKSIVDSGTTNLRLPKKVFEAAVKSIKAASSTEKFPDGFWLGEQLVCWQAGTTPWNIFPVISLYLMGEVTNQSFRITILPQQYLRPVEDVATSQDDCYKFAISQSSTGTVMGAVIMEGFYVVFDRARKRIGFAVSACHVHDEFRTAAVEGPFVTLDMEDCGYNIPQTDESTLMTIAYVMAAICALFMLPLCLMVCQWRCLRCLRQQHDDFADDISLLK

SMILES | IC50 [µM]
CC(C)C[C@H](NC(=O)[C@H](Cc1ccccc1)NC(=O)[C@@H](N)CNC(=O)c1nnn[nH]1)C(=O)NC[C@@](O)(CCc1ccccc1)C(=O)Nc1cccc(C(=O)O)c1 | > 10
CCCC[C@H](NC(=O)[C@@H](N)CNC(=O)c1nnn[nH]1)C(=O)N[C@@H](CC(C)C)C(=O)NCC(O)(CCc1ccccc1)C(=O)Nc1cccc(C(=O)O)c1 (stereo partly specified) | > 10
CC(C)[C@H](NC(=O)[C@@H](NC(=O)[C@@H](CO)NC(=O)c1nn[nH]n1)C(C)C)C(=O)NCC(O)C(=O)Nc1cccc(C(=O)O)c1 (stereo partly specified) | > 10
CC(C)C[C@H](NC(=O)[C@@H](NC(=O)[C@@H](N)CN)C(C)C)C(=O)NCC(O)C(=O)Nc1cccc(C(=O)O)c1 (stereo partly specified) | > 10
CC(C)C[C@H](NC(=O)[C@@H](NC(=O)[C@H](N)CNC(=O)c1nnn[nH]1)C(C)C)C(=O)NCCC(=O)Nc1cccc(C(=O)O)c1 | > 10
CC(C)C[C@H](NC(=O)[C@@H](NC(=O)[C@@H](CO)NC(=O)c1nn[nH]n1)C(C)C)C(=O)NCC(O)(CCc1ccccc1)C(=O)Nc1cccc(C(=O)O)c1 (stereo partly specified) | > 10
CC(C)C[C@H](NC(=O)[C@H](Cc1ccccc1)NC(=O)[C@@H](N)CNC(=O)c1nnn[nH]1)C(=O)NC[C@](O)(CCc1ccccc1)C(=O)Nc1cccc(C(=O)O)c1 | > 10
CC(C)C[C@H](NC(=O)[C@H](CC(C)C)NC(=O)[C@@H](N)CNC(=O)c1nnn[nH]1)C(=O)NCC(O)(CCc1ccccc1)C(=O)Nc1cccc(C(=O)O)c1 (stereo partly specified) | > 10
CC(C)C[C@H](NC(=O)[C@@H](NC(=O)[C@@H](N)CNC(=O)c1nnn[nH]1)C(C)C)C(=O)NC[C@](O)(CCc1ccccc1)C(=O)Nc1cccc(C(=O)O)c1 | 0.19
CC(C)C[C@H](NC(=O)[C@@H](NC(=O)[C@@H](N)CNC(=O)c1nn[nH]n1)C(C)C)C(=O)NC[C@@](O)(CCc1ccccc1)C(=O)Nc1cccc(C(=O)O)c1 | 1.4
CC(C)C[C@H](NC(=O)[C@@H](NC(=O)[C@@H](N)CN)C(C)C)C(=O)NCC(O)(CCc1ccccc1)C(=O)Nc1cccc(C(=O)O)c1 (stereo partly specified) | > 10
CC(C)C[C@H](NC(=O)[C@@H](NC(=O)[C@H](CO)NC(=O)c1nnn[nH]1)C(C)C)C(=O)NCC(O)(CCc1ccccc1)C(=O)Nc1cccc(C(=O)O)c1 (stereo partly specified) | > 10
CC(C)C[C@H](NC(=O)[C@@H](NC(=O)[C@H](N)CNC(=O)c1nn[nH]n1)C(C)C)C(=O)NCC(O)C(=O)Nc1cccc(C(=O)O)c1 (stereo partly specified) | > 10
CC(C)C[C@H](NC(=O)[C@@H](NC(=O)[C@@H](N)CNC(=O)c1nn[nH]n1)C(C)C)C(=O)NCC(O)(CCc1ccccc1)C(=O)Nc1cccc(C(=O)O)c1 (stereo partly specified) | 0.4
CC(C)C[C@H](NC(=O)[C@@H](NC(=O)[C@@H](CO)NC(=O)c1nnn[nH]1)C(C)C)C(=O)NCCC(=O)Nc1cccc(C(=O)O)c1 | > 10
CC(C)C[C@H](NC(=O)[C@@H](NC(=O)[C@H](N)CNC(=O)c1nnn[nH]1)C(C)C)C(=O)NCC(O)(CCc1ccccc1)C(=O)Nc1cccc(C(=O)O)c1 (stereo partly specified) | > 10
CC(C)C[C@H](NC(=O)[C@@H](NC(=O)[C@H](N)CO)C(C)C)C(=O)NCC(O)C(=O)Nc1cccc(C(=O)O)c1 (stereo partly specified) | > 10

Further lines, results first:

IC50 [µM] | SMILES
> 10 | CC(C)C[C@H](NC(=O)C[C@@H](NC(=O)[C@@H](N)CNC(=O)c1nnn[nH]1)C(C)C)C(=O)NCC(O)(CCc1ccccc1)C(=O)Nc1cccc(C(=O)O)c1 (stereo partly specified)
> 10 | CC(C)C[C@H](NC(=O)[C@@H](NC(=O)[C@H](CO)NC(=O)c1nnn[nH]1)C(C)C)C(=O)NCCC(=O)Nc1cccc(C(=O)O)c1
0.68 | CC(C)[C@H](NC(=O)[C@@H](N)CNC(=O)c1nn[nH]n1)C(=O)N[C@@H](CC1CCCCC1)C(=O)NCC(O)(Cc1ccccc1)C(=O)Nc1cccc(C(=O)O)c1 (stereo partly specified)
4.4 | CC(C)C[C@H](NC(=O)[C@@H](NC(=O)[C@@H](N)CNC(=O)c1nnn[nH]1)C(C)C)C(=O)O
0.87 | CC(C)C[C@H](NC(=O)[C@@H](NC(=O)[C@@H](N)CNC(=O)c1nnn[nH]1)C(C)C)C(=O)NCCC(=O)Nc1cccc(C(=O)O)c1
6.1 | CC(C)C[C@H](NC(=O)[C@@H](NC(=O)[C@@H](N)CNC(=O)c1nn[nH]n1)C(C)C)C(=O)NCC(O)C(=O)O (stereo partly specified)
3 | CC(C)[C@H](NC(=O)[C@@H](NC(=O)[C@@H](N)CNC(=O)c1nnn[nH]1)C(C)C)C(=O)NCC(O)C(=O)Nc1cccc(C(=O)O)c1 (stereo partly specified)
0.43 | CC(C)C[C@H](NC(=O)[C@@H](NC(=O)[C@@H](N)CNC(=O)c1nnn[nH]1)C(C)C)C(=O)NCC(O)(Cc1ccccc1)C(=O)Nc1cccc(C(=O)O)c1 (stereo partly specified)
0.44 | CC(C)C[C@H](NC(=O)[C@@H](NC(=O)[C@@H](N)CNC(=O)c1nn[nH]n1)C(C)C)C(=O)NCC(O)C(=O)Nc1cccc(C(=O)O)c1 (stereo partly specified)
